Test results from patent US9481685B2, “Imaging neuroinflammation” (GE Healthcare Limited, priority 2008, dated 2016).
Like-named read-outs stand apart in the source and are kept apart here.

Legend:
[1] = target: Wistar rat heart PBR (Rattus norvegicus (Rat), UniProt P16257); assay: In vitro potency assay: competition for binding to PBR against 0.3 nM [3H]-PK-11195
Method: The reaction was carried out in 50 mM Tris-HCl, pH 7.4 10 mM MgCl2 for 15 minutes at 25° C.

[2] = target: T1, PBR (Rattus norvegicus (Rat), UniProt P16257); assay: Autoradiography using facial nerve axotomy (FNA) model; type: in vivo; conditions: facial nucleus, 30 minutes after injection
Method: For in vivo studies, male Wistar rats (180-200 g) were used. Under Isoflurane anaesthesia, the hair from the right side of the auricular region was removed. An infraauricular incision was made and the main trunk of the facial nerve identified. The facial nerve was severed behind the ear at the exit from the stylomastoid foramen. The wound was sutured and animals left to recover. Seven days post-surgery animals were injected with ˜5-10 MBq in vivo imaging agent 1 via the lateral tail vein. Animals were killed 30 minutes later and brain stem removed and frozen in isopentane. Cryostat sections (12 μm) of brainstem containing both facial nuclei were mounted on glass slides and exposed to phosphor screen overnight.
Screens were then scanned on the Storm (GE Healthcare) phosphor-imager and the resultant scan was analysed and quantified using ImageQuant TL (GE Healthcare).

[3] = target: T1, PBR; assay: In vivo biodistribution, olfactory bulb:striatum uptake; conditions: 18F-labelled agents, adult male Wistar rats, lateral tail vein, 30 min post-injection
Method: In vivo imaging agents 1-7 as prepared in Examples 7, 8 and 9 above were tested in the in vivo biodistribution model and their biodistribution compared to that of the prior art compound [^18F]FE-PBR (prepared according to Example 14 of WO 2007/057705).
Adult male Wistar rats (200-300 g) were injected with 1-3 MBq of each in vivo imaging agent via the lateral tail vein. At 2 10,30 or 60 min (n=3) after injection, rats were euthanised and tissues or fluids were sampled for radioactive measurement by liquid scintillation counting.

[4] = non-radioactive analogues, Wistar rat heart PBR, vs 0.3 nM [3H]-PK-11195, 15 minutes at 25° C., read-out: Ki

Row | Molecule | Ki [1, 4] | Average intensity in the lesioned side ([2]; lesioned side, seven days post-surgery) | Average intensity in the non-lesioned side ([2]; non-lesioned side) | Ki [1] | OB:Striatum @ 30 min [3]
1 | CCN(CC)C(=O)C1Sc2ccccc2-c2c1c1cc(OC)ccc1n2CCF (racemic) [Imaging Agent 1, (+-)-11-(2-fluoroethyl)-8-methoxy-6,11-dihydro-5-thia-11-aza-benzo[a]fluorene-6-carboxylic acid diethyl amide] | 370 pM | 7.75±0.95 | 3.73±0.36 | – | –
2 | CCN(CC)C(=O)C1Sc2ccccc2-c2c1c1ccccc1n2CC[18F] (stereo not shown) [[^18F]FE-PBR, reference compound] | – | – | – | 680 pM | 1.42
3 | CCOc1ccc2c(c1)c1c(n2CCF)-c2ccccc2SC1C(=O)N(CC)CC (stereo not shown) [compound 6] | 520 pM | – | – | – | 2.67
4 | CCN(CC)C(=O)C1Sc2ccccc2-c2c1c1c(OC)cccc1n2CCF (stereo not shown) [compound 7] | 1090 pM | – | – | – | 2.42
5 | (+-)-4-fluoro-11-(2-fluoroethyl)-6,11-dihydro-5-thia-11-aza-benzo[a]fluorene-6-carboxylic acid diethyl amide [Imaging Agent 4] | 930 pM | – | – | – | 2.00
6 | (+-)-11-(2-fluoroethyl)-10-methoxy-6,11-dihydro-5-thia-11-aza-benzo[a]fluorene-6-carboxylic acid diethyl amide [Imaging Agent 3] | 400 pM | – | – | – | 3.50
